# Experimental data from patent US12103951B2, “Use of CGRP receptor antagonists in neuroprotection and neurological disorders” (priority 2016, dated 2024).
# Experiments:
# [1] = system: retinal ganglion cell (RGC); assay: Rat laser glaucoma model: number of RGCs (Brn3a positive cells) in retinal whole mounts; format: in vivo, Wistar rats
# Method: In this study, Wistar rats (n=12) were used for the experiments. The neuroprotective properties of compounds were investigated in a rat laser model of glaucoma. Rats were divided into two groups of six rats each. One group served as a placebo control receiving vehicle (NaCl) injections, and the other was treated with a peptide CGRP receptor antagonist (SEQ ID NO: 1). For all 12 rats, the contralateral, untreated eye served as a naïve undiseased control. The vehicle control and test compound (20 mg/kg) were administered systemically (IP) daily for the whole follow-up period of two weeks. The animals were sacrificed using transcardial perfusion. […] The number of Brn3a positive profiles was manually counted from retinal images taken from central and peripheral parts of retina. […]
# 1. Quantification of Brn3a and GFAP-positive cells from retinal whole mounts manually and using stereology. […]
# Retinal whole mounts were immuno-stained against RGC (Brn3a) and astrocytic (GFAP) antibodies and the number of cells was quantified either manually (Brn3a) or as previously described (Kalesnykas et al., 2008).
# The retinas were immuno-stained against RGC specific antibody Brn3a, retinas were imaged and Brn3a positive profiles were counted manually using Image J software (NIH, Bethesda, Maryland, USA). […]
# [2] = system: retinal astrocytes; assay: Rat laser glaucoma model: total number of GFAP-immunoreactive cells (retinal astrocytes); format: in vivo, Wistar rats; settings: between the groups (CGRP antagonist vs vehicle)
# Method: In this study, Wistar rats (n=12) were used for the experiments. The neuroprotective properties of compounds were investigated in a rat laser model of glaucoma. Rats were divided into two groups of six rats each. One group served as a placebo control receiving vehicle (NaCl) injections, and the other was treated with a peptide CGRP receptor antagonist (SEQ ID NO: 1). For all 12 rats, the contralateral, untreated eye served as a naïve undiseased control. The vehicle control and test compound (20 mg/kg) were administered systemically (IP) daily for the whole follow-up period of two weeks. The animals were sacrificed using transcardial perfusion. The retinal whole-mounts were then immuno-stained against retinal ganglion cell (RGC) marker Brn3a and astrocytic marker GFAP (glial fibrillary acidic protein). The number of Brn3a positive profiles was manually counted from retinal images taken from central and peripheral parts of retina. The total number of GFAP-immunoreactive cells (retinal astrocytes) was estimated using stereology. […]
# 1. Quantification of Brn3a and GFAP-positive cells from retinal whole mounts manually and using stereology.
# Retinal whole mounts were immuno-stained against RGC (Brn3a) and astrocytic (GFAP) antibodies and the number of cells was quantified either manually (Brn3a) or as previously described (Kalesnykas et al., 2008). […]
substance,measurement,setting,value
"NH2-Ala-Cys-Asp-Thr-Ala-Ala-Cys-Val-Leu-Gly-Arg-Leu-Ser-Gln-Glu-Leu-His-Arg-Leu-Gln-Thr-Tyr-Pro-Arg-Thr-Asn-Val-Gly-Ser-Lys-Ala-Phe-NH2 (H-ACDTAACVLGRLSQELHRLQTYPRTNVGSKAF-NH2; ends and bridges not checked) [SEQ ID NO: 1, peptide CGRP receptor antagonist]","number of Brn3a positive cells, increase in lasered eyes vs contralateral control eyes","[1]; IP daily for two weeks, increase, P=0.43",3.0%
same,neuroprotection at cellular and optic nerve axon levels,"[1]; rat glaucoma model, systemic administration",showed neuroprotection
same,total number of retinal astrocytes,[2],no differences
